Test results: patent US11377473B2, “Albumin-binding prodrugs of auristatin E derivatives” (priority 2017, dated 2022)

How the values were obtained:
albumin in rat plasma = molecular target: T1, albumin in rat plasma (Rattus norvegicus, UniProt P02770); experiment: Binding kinetics to albumin in rat plasma; type: in vitro ADME, Sprague Dawley rat; conditions: 37° C.
T1 construct: CD1 murine plasma and Sprague Dawley rat plasma were removed from −80° C. storage; from tissue; host or cells: Sprague Dawley rat plasma (frozen, thawed, filtered)
Procedure: CD1 murine plasma and Sprague Dawley rat plasma were removed from −80° C. storage and allowed to reach room temperature. The thawed plasma was spun down at 13.6 kRPM for 60 seconds, the supernatant was filtered through a filter needle (5 μm) and subsequently through a 0.45 μm CA membrane.
All binding experiments were carried out in triplicate. The plasma was incubated at 37° C. using an Eppendorf Thermomixer C. After 30 minutes incubation 40 μL of the appropriate albumin-binding auristatin-Sulf07 derivative was dissolved in its reconstitution solution and added to the plasma. Samples (40 μL) were taken after 15 seconds, 2 minutes, 4 minutes, 8 minutes and 15 minutes (5 samples).
The samples were immediately added to 160 μL of acetonitrile (containing 4 μg/mL of 'MMAE as an internal standard) and vortexed for 1 minute.
The solutions were pipetted into an Impact plasma precipitation plate (shaken for 60 seconds) and filtered by vacuum onto a 96 well plate. Remaining drug was determined by LCMS quantification (method 5, 30 μL injection) using MRM MS2 negative mode (multiple reaction monitoring). Parent ions: auristatin F (Mass-744.8), AE-Keto-Sulf07 (Mass-1135.1) and AE-Ester-Sulf07 (Mass-1283.2). Percentage of binding was determined by comparing the AUC for AE-Keto-Sulf07 and AE-Ester-Sulf07 to calibration curves generated by LCMS for each compound.

[1] = Reconstitution stability (maleimide hydrolysis, loss of API) in reconstitution buffer; type: physicochemical; conditions: for stability of the reconstituted drug (maleimide hydrolysis and loss of API): 50 mM sodium phosphate buffer pH 7.6, 5% sucrose, 2-HPβCD, room temperature, 240 minutes; for maleimide hydrolyzed: after 4 hours incubation at room temperature in reconstitution buffer (50 mM sodium phosphate pH 7.65 containing 4% HPβCD and 5% sucrose)
Procedure: (§1) The albumin-binding AE-Keto drug derivatives were reconstituted in 50 mM sodium phosphate buffer pH 7.6 which contained 5% sucrose (w/v) and 2% 2-hydroxypropyl-β-cyclodextrin (2-HPβCD). Both drugs were reconstituted at a concentration of 1277 μM (equal to 4.5 mg/kg murine xenograft dose), the dissolution of both drugs was confirmed by HPLC (method 2, 254 nm). Stability of the reconstituted drugs was monitored by HPLC at room temperature every 15 minutes over a period of 240 minutes for maleimide hydrolysis and loss of API.
as §1, with “AE-Ester” for “AE-Keto drug”, “4% 2-HPβCD.” for “2% 2-hydroxypropyl-β-cyclodextrin (2-HPβCD).”, “655” for “1277”, “2.4” for “4.5”, “310” for “254”

[2] = molecular target: T2, cysteine-34 of human serum albumin (Homo sapiens, UniProt P02768); experiment: Binding specificity to cysteine-34 of human serum albumin in human plasma (HIC); type: in vitro ADME; conditions: 5 minutes at 37° C.
T2 construct: from tissue; host or cells: human plasma (frozen, thawed, filtered)
Procedure: The albumin-binding auristatin-Sulf07 derivatives were reconstituted in 50 mM sodium phosphate buffer pH 7.6 and 5% sucrose which contained 2-HPβCD. 2% HPβCD concentration was used to reconstitute the AE-Keto-Sulf07 and 4% for the AE-Ester-Sulf07 respectively. Both drugs were reconstituted at a concentration of 1 mg/mL (AE-Ester-Sulf07 780 μM, AE-Keto-Sulf07 880 μM).
Human plasma was removed from −80° C. storage and allowed to reach room temperature. The thawed plasma was spun down at 13.6 kRPM for 60 seconds, the supernatant was filtered through filter needle (5 μm) and subsequently through a 0.45 μm CA membrane. 180 μL of the appropriate plasma was used for each binding experiment. The plasma was incubated at 37° C. using an Eppendorf Thermomixer C. After 30 minutes incubation 20 μL of the appropriate albumin-binding auristatin-Sulf07 derivative was added. The albumin-binding drug was allowed to react in the plasma for 5 minutes at 37° C. After 5 minutes the solution was analyzed directly by HPLC hydrophobic interaction chromatography (HIC, method 6, 250 nm) to confirm the site specific conjugation to albumin and formation of the albumin drug conjugate.

[3] = test system: panel of 6 selected human cancer cell lines (LXFL 1674L, SW-620, CAL-27, RKO, MDA-MB-468, SK-OV-3); experiment: IC50 determination in a panel of tumor cell lines (CellTiter-Blue Cell Viability assay); type: cell-based; conditions: geometric mean over six cell lines, 96 h treatment; read-out: Geometric mean IC50
Procedure: Samples were provided to Charles River Discovery Research Services Germany GmbH as frozen stock solutions in pharmaceutical grade DMSO (Sigma-Aldrich, Taufkirchen, Germany). On each day of the experiment, a frozen aliquot of stock solution was thawed. Subsequent serial dilutions were realized with complete RPMI 1640 cell culture medium using an intermediate dilution plate. 10 μL taken from the intermediate dilution plate were then transferred to 140 μL/well of the cell culture plate. Cells were treated with the test compounds at 10 concentrations in triplicate in half-log steps from 0.003 nM to 100 nM for a period of 96 h.
The compounds were tested in a panel of 6 selected human cancer cell lines by using CellTiter-Blue® Cell Viability assay (Promega, Mannheim, Germany). IC values are reported as absolute IC50 values, obtained for a test compound as the geometric mean of IC50 values over all cell lines tested.
The cell lines used were LXFL 1674L (established from patient-derived xenograft at Charles River Discovery Research Services Germany GmbH), SW-620 (kindly provided by the NCI, Bethesda, Md., USA), CAL-27 (purchased from DSMZ, Deutsche Sammlung von Mikroorganismen und Zellkulturen, Braunschweig, Germany), RKO, MDA-MB-468, and SK-OV-3 (from ATCC, American Type Culture Collection, Rockville, Md., USA). Authenticity of all cell lines was proven at the DSMZ by STR (short tandem repeat) analysis, a PCR based DNA-fingerprinting methodology. Cell lines were routinely passaged once or twice weekly and maintained in culture for up to 20 passages. Cells were grown at 37° C. in a humidified atmosphere with 5% CO2 in RPMI 1640 medium (25 mM HEPES, with L-glutamine, Biochrom, Berlin, Germany) supplemented with 10% (v/v) fetal calf serum (Sigma-Aldrich, Taufkirchen, Germany) and 0.1 mg/mL gentamicin (Life Technologies, Karlsruhe, Germany). The CellTiter-Blue® Cell Viability Assay was used according to manufacturer's instructions. Briefly, cells were harvested from exponential phase cultures, counted and plated in 96-well flat-bottom microtiter plates at a cell density of 4,000-10,000 cells/well depending on the cell line's growth rate. After a 24 h recovery period to allow the cells to resume exponential growth, 10 μL of culture medium (six control wells/plate) or of culture medium with test compound were added. The compounds were applied at 10 concentrations in triplicate in half-log increments up to 100 nM and cells were treated continuously for 96 h. […] Following an incubation period of up to 4 h, fluorescence (FU) was measured by using the Enspire Multimode Plate Reader (excitation λ=531 nm, emission λ=615 nm). IC50 values were determined with GraphPad Prism bioanalytic software (San Diego, Calif., USA).

T2 sequence (P02768 25-609): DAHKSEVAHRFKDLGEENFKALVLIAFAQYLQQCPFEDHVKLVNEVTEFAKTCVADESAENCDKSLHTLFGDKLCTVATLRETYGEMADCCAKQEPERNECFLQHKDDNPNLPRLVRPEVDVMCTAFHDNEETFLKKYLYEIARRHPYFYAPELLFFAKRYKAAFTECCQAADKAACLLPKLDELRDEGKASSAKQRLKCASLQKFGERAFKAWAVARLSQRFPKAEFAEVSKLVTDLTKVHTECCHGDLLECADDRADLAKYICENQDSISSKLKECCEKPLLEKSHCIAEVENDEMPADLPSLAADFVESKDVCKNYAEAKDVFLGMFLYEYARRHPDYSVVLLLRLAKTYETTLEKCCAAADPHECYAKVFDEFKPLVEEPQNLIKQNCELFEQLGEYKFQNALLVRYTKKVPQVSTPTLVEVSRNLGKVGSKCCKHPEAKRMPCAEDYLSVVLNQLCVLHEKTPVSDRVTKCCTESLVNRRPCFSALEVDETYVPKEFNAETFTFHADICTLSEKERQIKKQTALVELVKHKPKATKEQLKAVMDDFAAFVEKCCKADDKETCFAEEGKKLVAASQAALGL
T1 sequence (P02770 25-608): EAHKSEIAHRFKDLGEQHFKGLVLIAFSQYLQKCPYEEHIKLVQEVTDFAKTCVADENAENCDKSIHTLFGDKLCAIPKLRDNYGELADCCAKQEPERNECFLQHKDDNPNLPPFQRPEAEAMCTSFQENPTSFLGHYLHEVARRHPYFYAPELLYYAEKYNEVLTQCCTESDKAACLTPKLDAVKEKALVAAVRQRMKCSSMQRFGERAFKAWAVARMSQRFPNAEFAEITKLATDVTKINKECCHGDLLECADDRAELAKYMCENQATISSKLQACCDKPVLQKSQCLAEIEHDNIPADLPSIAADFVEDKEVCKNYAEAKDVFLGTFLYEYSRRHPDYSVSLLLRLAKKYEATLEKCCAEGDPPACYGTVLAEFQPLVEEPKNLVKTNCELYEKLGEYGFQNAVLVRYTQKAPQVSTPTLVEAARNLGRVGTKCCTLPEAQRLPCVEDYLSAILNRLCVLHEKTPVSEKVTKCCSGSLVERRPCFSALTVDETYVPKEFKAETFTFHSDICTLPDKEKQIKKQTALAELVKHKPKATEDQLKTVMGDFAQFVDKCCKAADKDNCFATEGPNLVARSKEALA

Row | Molecule | albumin binding in plasma (albumin in rat plasma) | stability of the reconstituted drug (maleimide hydrolysis and loss of API) [1] | maleimide hydrolyzed [1] [%] | specificity of binding to albumin [2] | IC50 [3] [nM]
1 | CC[C@H](C)[C@@H]([C@@H](CC(=O)N1CCC[C@H]1[C@H](OC)[C@@H](C)C(=O)N[C@H](C)C(=NNC(=O)c1ccc(NC(=O)CCCCCN2C(=O)C=CC2=O)cc1S(=O)(=O)O)c1ccccc1)OC)N(C)C(=O)[C@@H](NC(=O)[C@H](C(C)C)N(C)C)C(C)C [AE-Keto-Sulf07, 2-(2-((R)-2-((2R,3R)-3-((S)-1-((3R,4S,5S)-4-((S)-2-((S)-2-(dimethylamino)-3-methylbutanamido)-N,3-dimethylbutanamido)-3-methoxy-5-methylheptanoyl)pyrrolidin-2-yl)-3-methoxy-2-methylpropanamido)-1-phenylpropylidene)hydrazine-1-carbonyl)-5-(6-(2,5-dioxo-2,5-dihydro-1H-pyrrol-1-yl)hexanamido)benzenesulfonic acid] | very rapid | more stable than AE-Keto-EMCH | 2.2 | demonstrated | 
2 | CC[C@H](C)[C@@H]([C@@H](CC(=O)N1CCC[C@H]1[C@H](OC)[C@@H](C)C(=O)N[C@H](C)[C@@H](O)c1ccccc1)OC)N(C)C(=O)[C@@H](NC(=O)[C@H](C(C)C)N(C)C)C(C)C [auristatin E] |  |  |  |  | 0.13
3 | 2-(2-(1-(4-(((1S,2R)-2-((2R,3R)-3-((S)-1-((3R,4R,5S)-4-((S)-2-((R)-2-(dimethylamino)-3-methylbutanamido)-N,3-dimethylbutanamido)-3-methoxy-5-methylheptanoyl)pyrrolidin-2-yl)-3-methoxy-2-methylpropanamido)-1-phenylpropoxy)carbonyl)phenyl)ethylidene)hydrazine-1-carbonyl)-5-(6-(2,5-dioxo-2,5-dihydro-1H-pyrrol-1-yl)hexanamido)benzenesulfonic acid [AE-Ester-Sulf07] | very rapid | more stable than AE-Ester-EMCH | 2.5 | demonstrated | 
